In brackets after ≈: the same amount, converted by molar mass. Where two headings read alike, the source gives them in different places.
Columns and labels:
CB1 [1] = target: T1, CB1 (Homo sapiens, UniProt P21554); experiment: biochemical; type: binding; settings: for α (binding cooperativity factor): cooperativity with orthosteric agonist [3H]CP55,940, α >1 positive allosteric modulator
T1 construct: expressed in transfected cells; host or cells: HEK293T cells, transient calcium phosphate transfection, pcDNA3.1 vector; membrane preparation
T1 sequence (P21554 whole entry): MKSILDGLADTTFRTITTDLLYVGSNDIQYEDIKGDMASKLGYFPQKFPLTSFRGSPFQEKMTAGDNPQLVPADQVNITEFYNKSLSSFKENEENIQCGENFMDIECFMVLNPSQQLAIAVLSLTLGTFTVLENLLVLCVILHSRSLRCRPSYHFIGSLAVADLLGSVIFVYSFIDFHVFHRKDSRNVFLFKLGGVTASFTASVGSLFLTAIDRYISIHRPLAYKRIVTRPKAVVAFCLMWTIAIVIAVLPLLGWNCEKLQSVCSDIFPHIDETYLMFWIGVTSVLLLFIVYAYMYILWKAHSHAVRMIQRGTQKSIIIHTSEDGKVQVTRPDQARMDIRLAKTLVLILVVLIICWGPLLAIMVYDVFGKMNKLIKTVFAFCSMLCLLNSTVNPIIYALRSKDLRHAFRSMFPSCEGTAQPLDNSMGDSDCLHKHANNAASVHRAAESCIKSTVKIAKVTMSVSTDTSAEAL
Procedure: (§1) Human embryonic kidney 293T (HEK293T) cells were grown and seeded in Dulbecco's modified Eagle's medium with 3.5 mg/mL glucose and 10% fetal bovine serum at 37°C and 5% carbon dioxide. To express the CB1 receptors, HEK293T cells were seeded at 1,000,000 cells/100-mm plate. The following day, cells were transfected via the calcium phosphate method with ∼10 μg of human CB1 receptor cloned into pcDNA3.1[23] Membranes of the transfected cells were prepared as previously described 21 h after transfection.[24]
Approximately 3 μg of membrane preparation expressing CB1 was incubated with nine concentrations of allosteric modulator (1 nM-10 μM). The radiolabeled tracer [[3]H]CP55,940 (150.2 Ci/mmol; Perkin Elmer), an orthosteric agonist of CB1, was added at 0.5 nM. Nonspecific binding was established by treating with a high concentration of unlabeled CP55,940 (10 μM; Tocris). The membranes were incubated at 30°C for 60 min, and the reaction was terminated with the addition of 300 μL of Tris-Mg^2+-EDTA (TME) buffer with 5% bovine serum albumin (BSA). The mixture was harvested by filtration through a Brandel cell harvester with Whatman GF/C filter paper. Liquid scintillation counting was used to measure radioactivity.
To synthesize the target azaindole-2-carboxamides, it requires corresponding azaindole-2-carboxylic acids (i.e., 1b and 8) as the key building blocks (Fig. 2). To access these azaindole-2-carboxylic acids, we used the Hemetsberger–Knittel indole synthesis, which involves Knoevenagel condensation between a pyridinecarbaldehyde and the azido acetate 5.[20] […] In this investigation, the 6-azaindole-2-carboxylic acid 1b was obtained from a commercial source (Achemtek, Worcester, MA). […] At the receptor binding level, when α is >1, the ligand is a positive allosteric modulator, whereas when α is <1, the ligand is a negative allosteric modulator. Accordingly, when α is equal to 1, it indicates no allosteric modulation on orthosteric ligand binding.

physchem = type: physicochemical; settings: for solubility thermodynamic at 24 h: 37 °C, pH 7.4, aqueous buffer, thermodynamic from solid
Procedure: The thermodynamic solubility of selected compounds were tested according to previously reported methods.[16],[22] In brief, stock solution of test compound (1 mg/mL) in acetonitrile was prepared and then diluted with mobile phase to prepare the calibration standards in the concentration range of 0.1–50 μg/mL. Following this, 2 mg of test compound powder was suspended in 2 mL of phosphate-buffered saline (PBS; 10 mM) at pH 7.4 and 37°C. The suspension was stirred at 37°C with 800 rpm stirring for 24 h. After completion of the incubation, the saturated suspension was filtered through a syringe polytetrafluoroethylene filter (0.45 μm), which has no absorption for the compounds. 200 μL of the filtrate was diluted with 800 μL acetonitrile immediately to a final volume of 1 mL. Subsequently, 20 μL of this solution was used for the high-performance liquid chromatography (HPLC) analysis, which was analyzed on Shimadzu HPLC (LC model: LC20AB, UV/vis detector: SPD20A; Autosampler: SIL-20A HT) with a Phenomenex reverse phase C18 column (250×3 mm, Luna 5 μm C18 100Å). The HPLC analysis was carried out by using the mixture of acetonitrile and water (60:40 v/v) as the mobile phase with a flow rate of 1 mL/min. The signals were detected at UV wavelength 254 nm. At this wavelength, each peak's area under the curve was measured and used for the quantitative evaluation.

CB1 [2] = target: T1, CB1; experiment: [35S]GTPγS binding evaluation (G-protein coupling); type: biochemical; settings: percent of basal; for [35S]GTPγS binding, allosteric modulator alone: CB1 membranes treated with modulator alone; for [35S]GTPγS binding in the presence of CP55,940: modulator at 5 and 10 μM plus 0.1 μM CP55,940, compared to 0.1 μM CP55,940 alone
Procedure: as §1
To assess the impact of 3c and 3d on G-protein coupling of CB1, GTPγS assays were performed essentially as described previously.[20] […] GTPγS binding assay buffer (50 mM Tris-HCl, pH 7.4, 3 mM MgCl2, 0.2 mM EGTA, and 100 mM NaCl) was added to 200 μL. The membranes were incubated for 1 h at 30°C. To determine nonspecific binding, 10 μM unlabeled GTPγS (Sigma) was used. To determine basal activity, membrane preparations were treated with vehicle (dimethylsulfoxide or DMSO) alone. Termination of the reaction was achieved through filtration using Whatman GF/C filter papers and washing with cold TME buffer. Bound radioactivity was measured by liquid scintillation counting.

[3] = membranes of HEK293T cells expressing CB1, tracer [3H]CP55,940 0.5 nM, 30°C, 60 min, read-out: KB (equilibrium dissociation constant)
[4] = membranes of HEK293T cells expressing CB1, tracer [3H]CP55,940 0.5 nM, 30°C, 60 min

CN(C)c1ccc(CCNC(=O)c2cc3cc(Cl)ccc3[nH]2)cc1 [Compound 3a]
α (binding cooperativity factor) (CB1 [1]): 4.2 | Kb (CB1 [1]; [3]): 0.3 µM | Thermodynamic solubility (obtained from experiments) (physchem; 24 h, pH 7.4): 0 µg/mL

O=C(NCCc1ccc(N2CCCCC2)cc1)c1cc2cc(Cl)ccc2[nH]1 [Compound 3b]
Kb (CB1 [1]): 0.2 µM | α (binding cooperativity factor) (CB1 [1]): 5.1

CN(C)c1ccc(CCNC(=O)c2cc3cc(Cl)ncc3[nH]2)cc1 [Compound 3c]
[35S]GTPγS binding, allosteric modulator alone (CB1 [2]): inhibition of G-protein coupling was also seen | [35S]GTPγS binding in the presence of CP55,940 (CB1 [2]): inhibition of GTPγS binding | α (binding cooperativity factor) (CB1 [1]): 3.2 | KB (equilibrium dissociation constant) (CB1 [1]; [4]): modest binding affinity | Kb (CB1 [1]; [3]): 2.4 µM | solubility thermodynamic at 24 h (physchem): 1.6 µg/mL (≈ 4.67 µM)

O=C(NCCc1ccc(N2CCCCC2)cc1)c1cc2cc(Cl)ncc2[nH]1 [Compound 3d]
[35S]GTPγS binding, allosteric modulator alone (CB1 [2]): inhibition of G-protein coupling was also seen | [35S]GTPγS binding in the presence of CP55,940 (CB1 [2]): inhibition of GTPγS binding | reduction of binding to the CB1 receptor in comparison with indole-2-carboxamide counterpart 3b (CB1 [1]; 3d versus 3b): about 25 fold | KB (equilibrium dissociation constant) (CB1 [1]; [4]): modest binding affinity | Kb (CB1 [1]; [3]): 5.6 µM

CN(C)c1ccc(CCNC(=O)c2cc3cc(Cl)cnc3[nH]2)cc1 [Compound 9a]
KB (equilibrium dissociation constant) (CB1 [1]; [4]): completely lost their binding affinity | Kb (CB1 [1]; [3]): > 10 µM | solubility in common organic solvents suitable for HPLC sample preparation (physchem): exceptionally low solubility | solubility thermodynamic at 24 h (physchem): 3 µg/mL (≈ 8.75 µM)

O=C(NCCc1ccc(N2CCCCC2)cc1)c1cc2cc(Cl)cnc2[nH]1 [Compound 9b]
KB (equilibrium dissociation constant) (CB1 [1]; [4]): completely lost their binding affinity | Kb (CB1 [1]; [3]): > 10 µM

From article PMC6290480 (Cannabis and Cannabinoid Research, 2018)
